This passage reports melting point and Ki results from patent US7276603B2, “Benzofuranyl-and benzothienyl-piperazinyl quinolines and methods of their use” (Wyeth, priority 2003, dated 2007).

Where a name gives a salt, the structure may show the parent alone.

For data set [1], the target named is T1, human 5-HT1A receptors (Homo sapiens, UniProt P08908).
T1 construct: expressed in transfected cells; host or cells: CHO cells
T1 sequence (P08908 1-422): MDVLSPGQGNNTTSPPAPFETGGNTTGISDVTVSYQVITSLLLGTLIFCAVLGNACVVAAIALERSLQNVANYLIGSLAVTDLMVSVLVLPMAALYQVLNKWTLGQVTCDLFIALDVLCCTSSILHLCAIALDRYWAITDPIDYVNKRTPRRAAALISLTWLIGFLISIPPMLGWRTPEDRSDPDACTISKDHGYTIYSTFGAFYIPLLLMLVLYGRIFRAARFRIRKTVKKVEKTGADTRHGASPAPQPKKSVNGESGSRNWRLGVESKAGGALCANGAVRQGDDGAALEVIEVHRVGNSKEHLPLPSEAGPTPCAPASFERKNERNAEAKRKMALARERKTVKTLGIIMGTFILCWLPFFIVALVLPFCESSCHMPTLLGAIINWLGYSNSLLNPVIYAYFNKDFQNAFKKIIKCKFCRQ
Nature of the data set: displacement of [3H] 8-OH-DPAT from the 5-HT1A serotonin receptor. The format is binding. To be noted: CHO cells stably transfected with human 5-HT1A receptors. (Loss of bound radioactivity is the signal in a displacement assay; it reports binding, not function.)

Data set [2] addresses 5-HT transporter (Rattus norvegicus, UniProt P31652). Nature of the data set: Rat Brain 3H-Paroxetine Binding Assay (RB 5HT Transporter). The following applies: rat frontal cortical membranes; 3H-paroxetine 0.1 nM, 60 min, 25° C. From the text: Rat Brain ^3H-Paroxetine Binding Assay (RB 5HT Transporter):
This assay was used to determine a compound's affinity of the 5-HT transporter.
All reactions were terminated by the addition of ice cold Tris buffer followed by rapid filtration using a Tom Tech filtration device to separate bound from free ^3H-paroxetine.

Chain of 5-HT transporter (P31652 whole entry): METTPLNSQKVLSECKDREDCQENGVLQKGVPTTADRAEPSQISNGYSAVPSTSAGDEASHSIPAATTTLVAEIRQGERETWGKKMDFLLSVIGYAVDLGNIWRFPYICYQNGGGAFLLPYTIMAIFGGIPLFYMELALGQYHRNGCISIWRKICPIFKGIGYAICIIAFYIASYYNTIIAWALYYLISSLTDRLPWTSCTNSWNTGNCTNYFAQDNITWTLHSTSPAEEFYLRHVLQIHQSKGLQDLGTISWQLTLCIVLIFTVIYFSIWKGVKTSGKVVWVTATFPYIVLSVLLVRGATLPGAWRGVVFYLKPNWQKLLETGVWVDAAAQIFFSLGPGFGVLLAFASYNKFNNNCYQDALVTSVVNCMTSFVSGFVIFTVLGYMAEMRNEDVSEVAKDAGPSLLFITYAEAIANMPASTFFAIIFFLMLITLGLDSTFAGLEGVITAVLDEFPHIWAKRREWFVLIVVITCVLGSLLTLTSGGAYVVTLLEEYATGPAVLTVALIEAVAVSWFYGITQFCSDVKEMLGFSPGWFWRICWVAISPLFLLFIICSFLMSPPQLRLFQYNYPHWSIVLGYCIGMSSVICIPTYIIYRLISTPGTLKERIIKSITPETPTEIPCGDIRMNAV

The term melting point denotes the temperature of the solid-liquid transition. For `COc1cc(N2CCN(CCc3coc4ccc(F)cc34)CC2)c2ncccc2c1` (as salt: HCl) [Compound 16, 8-{4-[2-(5-fluoro-1-benzofuran-3-yl)ethyl]-1-piperazinyl}-6-methoxy-quinoline], the melting point came out at 80 °C.

`Fc1cc(N2CCN(CCc3coc4ccc(F)cc34)CC2)c2ncccc2c1` (as salt: HCl) [Compound 17, 8-{4-[2-(5-fluoro-1-benzofuran-3-yl)ethyl]-1-piperazinyl}-6-fluoro-quinoline] came in with a melting point of 55 °C.

With `COc1cccc2c(CCN3CCN(c4cc(Cl)cc5cccnc45)CC3)coc12` (as salt: HCl) [Compound 20, 8-{4-[2-(7-methoxy-1-benzofuran-3-yl)ethyl]-1-piperazinyl}-6-chloro-quinoline], the melting point was 248 °C.

Molecule `COc1cccc2c(C(C)CN3CCN(c4cccc5cccnc45)CC3)coc12` (stereo not shown) (as salt: HCl) [Compound 31, 8-{4-[2-(7-methoxy-1-benzofuran-3-yl)propyl]-1-piperazinyl}quinoline] came in with a melting point of 192 °C.

With `COc1cccc2c(C(C)CN3CCN(c4cc(Cl)cc5cccnc45)CC3)coc12` (stereo not shown) (as salt: HCl) [Compound 33, 8-{4-[2-(7-methoxy-1-benzofuran-3-yl)propyl]-1-piperazinyl}-6-chloro-quinoline], the melting point lay within 55 to 58 °C.

For orientation: Ki means a measure of affinity in units of concentration, obtained from inhibition or displacement. Molecule `COc1ccc2occ(CCN3CCN(c4cccc5cccnc45)CC3)c2c1` [Compound 21, 8-{4-[2-(5-methoxy-1-benzofuran-3-yl)ethyl]-1-piperazinyl}-quinoline] gave a melting point of 78 °C. Besides, the Ki in data set [1] stood at 2.83 nM. For the same molecule, the Ki in data set [2] stood at 7.25 nM.

With `COc1ccc2occ(CCN3CCN(c4cc(Cl)cc5cccnc45)CC3)c2c1` [Compound 22, 8-{4-[2-(5-methoxy-1-benzofuran-3-yl)ethyl]-1-piperazinyl}-6-chloro-quinoline], the melting point was 72 °C. The same molecule registered a Ki in data set [1] of 2.69 nM. The Ki in data set [2] amounted to 2 nM.

`COc1cc(N2CCN(C(C)Cc3coc4c(OC)cccc34)CC2)c2ncccc2c1` (stereo not shown) [Compound 36, 6-methoxy-8-{4-[2-(7-methoxy-1-benzofuran-3-yl)-1-methylethyl)piperazin-1-yl]quinoline]: the figures for the Ki in data set [1] and in data set [2] were 0.23 nM and 4.16 nM, respectively.

Consider `COc1ccc2occ(CC(C)N3CCN(c4cc(Cl)cc5cccnc45)CC3)c2c1` (stereo not shown) [Compound 39, 6-chloro-8-{4-[2-(5-methoxy-1-benzofuran-3-yl)-1-methylethyl)piperazin-1-yl]quinoline], for which the Ki in data set [1] came out at 0.34 nM; in data set [2], 5.5 nM.

For the molecule `COc1ccc2occ(CC(C)N3CCN(c4cc(C)cc5cccnc45)CC3)c2c1` (stereo not shown) [Compound 40, 6-methyl-8-{4-[2-(5-methoxy-1-benzofuran-3-yl)-1-methylethyl)piperazin-1-yl]quinoline], the Ki in data set [1] is 1.77 nM; in data set [2] it was 130 nM.

For the molecule `Clc1cc(N2CCN([C@H]3CC[C@@H](c4csc5ccccc54)CC3)CC2)c2ncccc2c1` [Compound 41, 8-{4-[4-cis-(1-benzothien-3-yl)cyclohexyl]-1-piperazinyl}-6-chloroquinoline], the melting point fell in the range of 164 to 165 °C. Further, the Ki in data set [1] stood at 2.25 nM. This molecule also gave a Ki in data set [2] of 65 nM.

`Clc1cc(N2CCN([C@H]3CC[C@H](c4csc5ccccc54)CC3)CC2)c2ncccc2c1` [Compound 42, 8-{4-[4-trans(1-benzothien-3-yl)cyclohexyl]-1-piperazinyl}-6-chloroquinoline]: the melting point was 143 to 144 °C. The molecule also displayed a Ki in data set [1] of 140 nM. For the same molecule, in data set [2], the Ki came to 157 nM.

As for `Fc1cc(N2CCN([C@H]3CC[C@@H](c4csc5ccccc54)CC3)CC2)c2ncccc2c1` [Compound 43, 8-{4-[4-cis(1-benzothien-3-yl)cyclohexyl]-1-piperazinyl}-6-fluoroquinoline], the melting point fell in the range of 147 to 151 °C. Further, in data set [1], the Ki stood at 1.17 nM. Further, the Ki in data set [2] amounted to 311 nM.

In turn, `Fc1cc(N2CCN([C@H]3CC[C@H](c4csc5ccccc54)CC3)CC2)c2ncccc2c1` [Compound 44, 8-{4-[4-trans(1-benzothien-3-yl)cyclohexyl]-1-piperazinyl}-6-fluoroquinoline] gave a melting point of 195 °C. The same molecule yielded a Ki in data set [1] of 130 nM. This molecule also yielded a Ki in data set [2] of 380 nM.

Consider `COc1cc(N2CCN([C@H]3CC[C@@H](c4csc5ccccc54)CC3)CC2)c2ncccc2c1` [Compound 45, 8-{4-[4-cis(1-benzothien-3-yl)cyclohexyl]-1-piperazinyl}-6-methoxyquinoline], for which the melting point lay within 148 to 150 °C. In addition, in data set [1], the affinity, expressed as Ki, was 1.73 nM. The molecule also registered a Ki in data set [2] of 259 nM.

The molecule `COc1cc(N2CCN([C@H]3CC[C@H](c4csc5ccccc54)CC3)CC2)c2ncccc2c1` [Compound 46, 8-{4-[4-trans (1-benzothien-3-yl)cyclohexyl]-1-piperazinyl}-6-methoxyquinoline] came in with a melting point of 166 to 168 °C. In data set [1], this molecule displayed a Ki of 126 nM. The molecule further had a Ki in data set [2] of 21 nM.

The molecule `Fc1cc(N2CCN([C@H]3CC[C@H](c4csc5ccc(F)cc54)CC3)CC2)c2ncccc2c1` [Compound 48, 6-fluoro-8-{4-[4-trans(5-fluoro-1-benzothien-3-yl)cyclohexyl]piperazin-1-yl}quinoline] yielded a melting point of 143 to 144 °C. The molecule also yielded a Ki in data set [1] of 0.28 nM. Besides, in data set [2], the Ki was 155 nM.

For `COc1cc(N2CCN([C@H]3CC[C@@H](c4csc5ccc(F)cc54)CC3)CC2)c2ncccc2c1` [Compound 49, 6-methoxy-8-{4-[4-cis(5-fluoro-1-benzothien-3-yl)cyclohexyl]piperazin-1-yl}quinoline], the values for the Ki in data set [1] and in data set [2] were 1.37 nM and 92 nM, respectively.

With `COc1cc(N2CCN([C@H]3CC[C@H](c4csc5ccc(F)cc54)CC3)CC2)c2ncccc2c1` [Compound 50, 6-methoxy-8-{4-[4-trans(5-fluoro-1-benzothien-3-yl)cyclohexyl]piperazin-1-yl}quinoline], the Ki in data set [1] worked out at 25.9 nM; in data set [2] it was 10 nM.

`Fc1ccc2scc([C@H]3CC[C@@H](N4CCN(c5ccc(Cl)c6cccnc56)CC4)CC3)c2c1` [Compound 51, 5-chloro-8-{4-[4-cis(5-fluoro-1-benzothien-3-yl)cyclohexyl]piperazin-1-yl}quinoline] yielded a melting point of 192 to 197 °C. Further, the Ki in data set [1] was determined as 4.14 nM. The same molecule showed a Ki in data set [2] of 133 nM.

In turn, `Fc1ccc2scc([C@H]3CC[C@H](N4CCN(c5ccc(Cl)c6cccnc56)CC4)CC3)c2c1` [Compound 52, 5-chloro-8-{4-[4-trans(5-fluoro-1-benzothien-3-yl)cyclohexyl]piperazin-1-yl}quinoline] returned a melting point of 195 to 197 °C. Besides, in data set [2], the affinity corresponds to a Ki of 48 nM.

In the case of `Fc1ccc(N2CCN([C@H]3CC[C@@H](c4coc5ccccc54)CC3)CC2)c2ncccc12` [Compound 53, 8-{4-[4-cis(1-benzofuran-3-yl)cyclohexyl]-1-piperazinyl}-5-fluoroquinoline], the melting point lay within 142 to 144 °C. Further, the affinity in data set [1], expressed as Ki, was 1.74 nM. In addition, in data set [2], the Ki was 208 nM.

Take `Fc1cc(N2CCN([C@H]3CC[C@@H](c4coc5ccccc54)CC3)CC2)c2ncccc2c1` [Compound 55, 8-{4-[4-cis(1-benzofuran-3-yl)cyclohexyl]-1-piperazinyl}-6-fluoroquinoline]: the Ki in data set [1] is 0.11 nM; in data set [2] it was 116 nM.

For `COc1cccc2c1occ2[C@H]1CC[C@H](N2CCN(c3ccc(F)c4cccnc34)CC2)CC1` [Compound 58, 5-fluoro-8-{4-[4-trans(7-methoxy-1-benzofuran-3-yl)cyclohexyl]-1-piperazinyl}quinoline], the Ki was determined as 21.1 nM in data set [1] and 34 nM in data set [2].

As for `COc1cccc2c1occ2[C@H]1CC[C@@H](N2CCN(c3ccc(Cl)c4cccnc34)CC2)CC1` [Compound 63, 5-chloro-8-{4-[4-cis(7-methoxy-1-benzofuran-3-yl)cyclohexyl]piperazin-1-yl}quinoline], the Ki was 0.92 nM in data set [1] and 87 nM in data set [2].

Take `COc1cccc2c1occ2[C@H]1CC[C@H](N2CCN(c3ccc(Cl)c4cccnc34)CC2)CC1` [Compound 64, 5-chloro-8-{4-[4-trans(7-methoxy-1-benzofuran-3-yl)cyclohexyl]piperazin-1-yl}quinoline]: the Ki in data set [1] came out at 18.7 nM; in data set [2], 49 nM.

Take `COc1ccc2occ([C@H]3CC[C@@H](N4CCN(c5ccc(Cl)c6cccnc56)CC4)CC3)c2c1` [Compound 65, 5-chloro-8-{4-[4-cis(5-methoxy-1-benzofuran-3-yl)cyclohexyl]piperazin-1-yl}quinoline]: the Ki in data set [1] was found to be 10.1 nM; in data set [2], 53 nM.

`COc1ccc2occ([C@H]3CC[C@H](N4CCN(c5ccc(Cl)c6cccnc56)CC4)CC3)c2c1` [Compound 66, 5-chloro-8-{4-[4-trans(5-methoxy-1-benzofuran-3-yl)cyclohexyl]piperazin-1-yl}quinoline]: the Ki in data set [1] worked out at 1.99 nM; in data set [2], 89 nM.

In turn, `COc1cc(N2CCN([C@H]3CC[C@H](c4cc5ccccc5s4)CC3)CC2)c2ncccc2c1` [Compound 71] came in with a melting point of 193 to 194 °C. In addition, the Ki in data set [1] was found to be 162 nM.
